The results in this text go back to EPA's ToxValDB 9.5 (doi:10.2903/j.efsa.2006.79r).

The subject of one series is Anas platyrhynchos. The note with it: short-term; duration: 5 days; oral; feed; mortality.
The next series deals with Apis mellifera. The following applies: acute; duration: 48 hours; dermal; mortality.
The subject of another series is Canidae. The following applies: subchronic; duration: 90 days; oral; diet; Dog Other; clinical signs.
A further series has as its system Colinus virginianus. The following applies: reproduction developmental.
For another series, the system named is Coturnix japonica. The note with it: acute; oral; mortality.
The next series relates to Daphnia magna. The following applies: chronic/long-term; reproduction.
The test system of a further series is Rattus norvegicus. The note with it: acute; oral; mortality.
The test system of the next series is Tagia sp. The following applies: mortality.
The next series has as its system Aphidius rhopalosiphi. Kind of series: LR50; higher = less toxic. The note with it: acute; duration: 48 hours; mortality.

In brackets after ≈: the same amount, converted by molar mass.

`CNC(=O)Oc1cc(C)c(SC)c(C)c1` [Methiocarb]: the LC50 with Anas platyrhynchos stood at 1070 mg/kg; with Oncorhynchus mykiss (acute, mortality), 0.65 µg/mL (≈ 2.88 µM); in the series with Tagia sp. (acute), 1330 mg/kg. The LD50 in the series on Apis mellifera came to 0.23 µg/piece; in the series with Coturnix japonica it was 5 mg/kg; in the series with Rattus norvegicus, 19 mg/kg. In the series on Canidae, the NOAEL was found to be 1.33 mg/kg-day. Further, the NOEC turned out to be 4.51 mg/kg-day in the series with Colinus virginianus; 0.0001 mg/L in the series on Daphnia magna; 0.05 mg/L with Oncorhynchus mykiss (chronic/long-term, growth); 0.32 mg/kg in the series with Tagia sp. (chronic/long-term). Moreover, the LR50 with Aphidius rhopalosiphi came to 0.47 g/ha.

By NOAEL is commonly meant the highest dose or exposure tested at which no adverse effect was seen.
